One data set deals with HCV replicon I389luc-ubi-neo/NS3-3′/ET in ET (Huh-lucubineo-ET) cells; screening for HCV RNA dependent RNA polymerase. In words: Replicon Assay (luciferase, ET cell line Huh-lucubineo-ET). Format: cell-based. Conditions: Hepatitis C virus; inhibition of replication relative to no compound control; test concentration of 10 μM according to the fitted equation; luciferase 48-72 hours. In short, it runs like this: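 Huh-derived ET cells stably carrying an I389luc-ubi-neo/NS3-3′/ET HCV replicon with a luciferase-ubiquitin-neomycin phosphotransferase fusion and adaptive NS3-5B mutations were cultured in DMEM with 10% fetal calf serum and 250 μg/mL G418. Cells were seeded at 0.5-1.0×10^4 cells/well in 96 well plates and given compound after 24 hrs. Luciferase was read 48-72 hours later with Bright-Glo reagents, and replication inhibition was expressed relative to untreated controls.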
Regarding `COC(=O)N1CCC[C@H]1C(=O)Nc1nc(-c2ccc(C(=O)NC3CC3)cc2)cs1` [Compound 5373, 2-[4-(4-Cyclopropylcarbamoyl-phenyl)-thiazol-2-ylcarbamoyl]-pyrrolidine-1-carboxylic acid methyl ester], the inhibition – broadly, how much of the control response was suppressed – at 10 µM came out at 81.5%. In turn, `O=C(CCCCC1SC[C@@H]2NC(=O)N[C@H]12)NCCCCCC(=O)Nc1ccc(-c2csc(NC(=O)C3CCCN3C(=O)OCc3ccccc3)n2)cc1` (stereo partly shown) [Compound 5374, 2-[4-(4-{6-[5-(2-Oxo-hexahydro-thieno[3,4-d]imidazol-6-yl)-pentanoylamino]-hexanoylamino}-phenyl)-thiazol-2-ylcarbamoyl]-pyrrolidine-1-carboxylic acid benzyl ester] came in with an inhibition at 10 µM of 99.3%. Regarding `O=C(NC1CC1)c1ccc(-c2csc(NC(=O)[C@@H]3[C@@H](O)CCN3C(=O)OCc3ccccc3)n2)cc1` [Compound 5376, 2-[4-(4-Cyclopropylcarbamoyl-phenyl)-thiazol-2-ylcarbamoyl]-3-hydroxy-pyrrolidine-1-carboxylic acid benzyl ester], the inhibition at 10 µM stood at 96%. Same read-out and setting: the figure for `O=C(Nc1nc(-c2ccc(C(=O)N3CCN(CCO)CC3)cc2)cs1)[C@@H]1CCCN1C(=O)OCc1ccccc1` [Compound 5377, 2-(4-{4-[4-(2-Hydroxy-ethyl)-piperazine-1-carbonyl]-phenyl}-thiazol-2-ylcarbamoyl)-pyrrolidine-1-carboxylic acid benzyl ester] is 5.71%; for `O=C(Nc1nc(-c2ccc(S(=O)(=O)NC3CC3)cc2)cs1)C1CCCN1C(=O)OCc1ccccc1` (stereo not shown) [Compound 5378, 2-[4-(4-Cyclopropylsulfamoyl-phenyl)-thiazol-2-ylcarbamoyl]-pyrrolidine-1-carboxylic acid benzyl ester] it is 98.3%. `NCc1ccc(-c2csc(NC(=O)[C@@H]3CCCN3C(=O)OCc3ccccc3)n2)cc1` [Compound 5379, 2-[4-(4-Aminomethyl-phenyl)-thiazol-2-ylcarbamoyl]-pyrrolidine-1-carboxylic acid benzyl ester] displayed an inhibition at 10 µM of 25%. Still for that read-out and setting: under `O=C(Nc1nc(-c2ccc(NCC3CCCC3)cc2)cs1)[C@@H]1CCCN1C(=O)OCc1ccccc1` [Compound 5380, 2-{4-[4-(Cyclopentylmethyl-amino)-phenyl]-thiazol-2-ylcarbamoyl}-pyrrolidine-1-carboxylic acid benzyl ester] stands 98.3%; under `O=C(Nc1nc(-c2cccc(N(CC3CC3)CC3CC3)c2)cs1)[C@@H]1CCCN1C(=O)OCc1ccccc1` [Compound 5383, 2-{4-[3-(Bis-cyclopropylmethyl-amino)-phenyl]-thiazol-2-ylcarbamoyl}-pyrrolidine-1-carboxylic acid benzyl ester], 47%.

`O=C(NC1CC1)c1ccc(-c2csc(NC(=O)C3CCCN3C(=O)OCc3ccncc3)n2)cc1` (stereo not shown) [Compound 5384, 2-[4-(4-Cyclopropylcarbamoyl-phenyl)-thiazol-2-ylcarbamoyl]-pyrrolidine-1-carboxylic acid pyridin-4-ylmethyl ester] yielded an inhibition at 10 µM of 99.7%.

System in a further data set: not given
Assay: not given
The note with it: patients treated at currently recommended doses; cited from earlier work.
In the case of `NC(=O)c1ncn([C@@H]2O[C@H](CO)[C@@H](O)[C@H]2O)n1` [Ribavirin], the “patients with significant hemolysis” value is 10-20%.

Source of the values: patent US7595398B2, “N-(5-membered aromatic ring)-amido anti-viral compounds” (SmithKline Beecham Corporation, priority 2005, dated 2009).
